Values after ≈ are worked out from the molar mass of the structure shown. Starred links: 1 amine or outer side, 2 acyl side, 3 side chain; linkers in the order of their positions; H or OH if unused. Positions of bridges follow the written chain, without caps; N, C: chain ends. Residues, ends and D or L forms follow the SMILES beside them. mXylylene = c1cc(C[*:1])cc(C[*:2])c1; pXylylene = c1cc(C[*:2])ccc1C[*:1]; X1 = C(=CC[*:2])C[*:1]
Key:
[1] = tested on: Escherichia coli (E. coli); format: cell-based; conditions: microbroth dilution, 20-24 hours at 37° C.
Method in brief: (§1)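 Bacteria from overnight cultures, regrown 3-4 h, were added at 5×10^5 CFU/ml final to peptide serial dilutions in MHB or MHB II. Plates were incubated 20-24 h at 37° C. The minimum peptide concentration without visible growth was taken as MIC, per a CLSI-adapted microdilution protocol.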

[2] = tested on: Pseudomonas aeruginosa (P. aeruginosa); format: cell-based; conditions: microbroth dilution, 20-24 hours at 37° C.
Method in brief: as §1

[3] = tested on: Acinetobacter baumannii (A. baumannii); format: cell-based; conditions: microbroth dilution, 20-24 hours at 37° C.
Method in brief: as §1

[4] = tested on: Klebsiella pneumoniae (K. pneumoniae); format: cell-based; conditions: microbroth dilution, 20-24 hours at 37° C.
Method in brief: as §1

[5] = tested on: Staphylococcus aureus (S. aureus); format: cell-based; conditions: microbroth dilution, 20-24 hours at 37° C.
Method in brief: as §1

[6] = 90 minute cytotoxicity assay (LDH release), renal toxicity; format: cell-based; conditions: 90 minutes of incubation, LDH release; read-out: Inhibitory Concentration at 50% Cytotoxicity (IC50) Human Renal Proximal Tubule Epithelial Cells (RPTEC)
Method in brief: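 Released lactate dehydrogenase, read as absorbance at 490 nm after 10 min with assay reagent, serves as read-out. Renal proximal tubule epithelial cells received peptide serial dilutions or vehicle for 90 min at 37° C after overnight plating.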

[7] = 48 hours cytotoxicity assay (CellTiter-Glo), liver toxicity; format: cell-based, human; conditions: 48 hours of incubation, CellTiter-Glo; read-out: Inhibitory Concentration at 50% Cytotoxicity (IC50) Human Liver Cells (HepG2)
Method in brief: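 Viability from CellTiter-Glo luminescence after StAMP dilution series or vehicle acted on HepG2 cells for 48 h at 37 °C. Cells were grown in EMEM plus 10% FBS and given 4 h to attach before dosing.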

Row | Structure (SMILES) | Minimum Inhibitory Concentration (MIC) E. coli [1] [µg/mL] | Minimum Inhibitory Concentration (MIC) P. aeruginosa [2] [µg/mL] | Minimum Inhibitory Concentration (MIC) A. baumannii [3] [µg/mL] | Minimum Inhibitory Concentration (MIC) K. pneumoniae [4] [µg/mL] | Minimum Inhibitory Concentration (MIC) S. aureus [5] [µg/mL] | IC50 [6] [µg/mL] | IC50 [7] [µg/mL]
1 | CC[C@H](C)[C@H](NC(=O)CN)C(=O)N[C@@H](Cc1ccccc1)C(=O)N[C@@H](CO)C(=O)N[C@@H](CCCCN)C(=O)N[C@@H](CC(C)C)C(=O)N[C@@H](C)C(=O)NCC(=O)N[C@@H](CCCCN)C(=O)N[C@@H](CCCCN)C(=O)N[C@H]1CSCc2ccc(cc2)CSC[C@@H](C(=O)N[C@H](C(=O)N[C@@H](CO)C(=O)NCC(=O)N[C@@H](CC(C)C)C(=O)N[C@@H](CCCCN)C(=O)NCC(N)=O)[C@@H](C)CC)NC(=O)[C@H](CC(C)C)NC(=O)[C@H](CC(N)=O)NC(=O)[C@H](CCCCN)NC1=O [compound 18] (H-GIFSKLAGKKCKNLCISGLKG-NH2; linker 11-15 via pXylylene) | >64 | >64 | >64 | >64 | >64 | > 200 | > 200
2 | CC[C@H](C)[C@H](NC(=O)CN)C(=O)N[C@@H](Cc1ccccc1)C(=O)N[C@@H](CO)C(=O)N[C@@H](CCCCN)C(=O)N[C@@H](CC(C)C)C(=O)N[C@@H](C)C(=O)NCC(=O)N[C@@H](CCCCN)C(=O)N[C@@H](CCCCN)C(=O)N[C@H]1CSCC=CCSC[C@@H](C(=O)N[C@H](C(=O)N[C@@H](CO)C(=O)NCC(=O)N[C@@H](CC(C)C)C(=O)N[C@@H](CCCCN)C(=O)NCC(N)=O)[C@@H](C)CC)NC(=O)[C@H](CC(C)C)NC(=O)[C@H](CC(N)=O)NC(=O)[C@H](CCCCN)NC1=O [compound 19] (H-GIFSKLAGKKCKNLCISGLKG-NH2; linker 11-15 via X1) | >64 | >64 | >64 | >64 | >64 | > 200 | > 200
3 | CC[C@H](C)[C@H](NC(=O)CN)C(=O)N[C@@H](Cc1ccccc1)C(=O)N[C@@H](CO)C(=O)N[C@@H](CCCCN)C(=O)N[C@@H](CC(C)C)C(=O)N[C@@H](C)C(=O)NCC(=O)N[C@@H](CCCCN)C(=O)N[C@@H](CCCCN)C(=O)N[C@H](C(=O)N[C@H]1CSCc2cccc(c2)CSC[C@@H](C(=O)N[C@@H](CO)C(=O)NCC(=O)N[C@@H](CC(C)C)C(=O)N[C@@H](CCCCN)C(=O)NCC(N)=O)NC(=O)[C@H](CC(C)C)NC(=O)[C@H](CC(C)C)NC(=O)[C@H](CC(N)=O)NC1=O)[C@@H](C)CC [compound 20] (H-GIFSKLAGKKICNLLCSGLKG-NH2; linker 12-16 via mXylylene) | 8 | 16 | 8 | 16 | 64 | 25 (≈ 11.1 µM) | 40 (≈ 17.8 µM)
4 | CC[C@H](C)[C@H](NC(=O)CN)C(=O)N[C@@H](Cc1ccccc1)C(=O)N[C@@H](CO)C(=O)N[C@@H](CCCCN)C(=O)N[C@@H](CC(C)C)C(=O)N[C@@H](C)C(=O)NCC(=O)N[C@@H](CCCCN)C(=O)N[C@@H](CCCCN)C(=O)N[C@H](C(=O)N[C@H]1CSCc2ccc(cc2)CSC[C@@H](C(=O)N[C@@H](CO)C(=O)NCC(=O)N[C@@H](CC(C)C)C(=O)N[C@@H](CCCCN)C(=O)NCC(N)=O)NC(=O)[C@H](CC(C)C)NC(=O)[C@H](CC(C)C)NC(=O)[C@H](CC(N)=O)NC1=O)[C@@H](C)CC [compound 21] (H-GIFSKLAGKKICNLLCSGLKG-NH2; linker 12-16 via pXylylene) | 8 | 32 | 16 | 32 | >64 | 96 (≈ 42.6 µM) | 200 (≈ 88.8 µM)
5 | CC[C@H](C)[C@H](NC(=O)CN)C(=O)N[C@@H](Cc1ccccc1)C(=O)N[C@@H](CO)C(=O)N[C@@H](CCCCN)C(=O)N[C@@H](CC(C)C)C(=O)N[C@@H](C)C(=O)NCC(=O)N[C@@H](CCCCN)C(=O)N[C@@H](CCCCN)C(=O)N[C@H](C(=O)N[C@H]1CSCC=CCSC[C@@H](C(=O)N[C@@H](CO)C(=O)NCC(=O)N[C@@H](CC(C)C)C(=O)N[C@@H](CCCCN)C(=O)NCC(N)=O)NC(=O)[C@H](CC(C)C)NC(=O)[C@H](CC(C)C)NC(=O)[C@H](CC(N)=O)NC1=O)[C@@H](C)CC [compound 22] (H-GIFSKLAGKKICNLLCSGLKG-NH2; linker 12-16 via X1) | 32 | 64 | 64 | >64 | >64 | > 200 | > 200
6 | CC[C@H](C)[C@H](NC(=O)CN)C(=O)N[C@@H](Cc1ccccc1)C(=O)N[C@@H](CO)C(=O)N[C@@H](CCCCN)C(=O)N[C@@H](CC(C)C)C(=O)N[C@@H](C)C(=O)NCC(=O)N[C@@H](CCCCN)C(=O)N[C@@H](CCCCN)C(=O)N[C@H](C(=O)N[C@@H](CCCCN)C(=O)N[C@@H](CC(N)=O)C(=O)N[C@@H](CC(C)C)C(=O)N[C@H]1CSCc2cccc(c2)CSC[C@@H](C(=O)N[C@@H](CCCCN)C(=O)NCC(N)=O)NC(=O)CNC(=O)[C@H](CO)NC(=O)[C@H]([C@@H](C)CC)NC1=O)[C@@H](C)CC [compound 29] (H-GIFSKLAGKKIKNLCISGCKG-NH2; linker 15-19 via mXylylene) | 64 | 64 | 16 | >64 | >64 | > 200 | ~200 (≈ 88.2 µM)
7 | CC[C@H](C)[C@H](NC(=O)CN)C(=O)N[C@@H](Cc1ccccc1)C(=O)N[C@@H](CO)C(=O)N[C@@H](CCCCN)C(=O)N[C@@H](CC(C)C)C(=O)N[C@@H](C)C(=O)NCC(=O)N[C@@H](CCCCN)C(=O)N[C@@H](CCCCN)C(=O)N[C@H](C(=O)N[C@@H](CCCCN)C(=O)N[C@@H](CC(N)=O)C(=O)N[C@@H](CC(C)C)C(=O)N[C@H]1CSCc2ccc(cc2)CSC[C@@H](C(=O)N[C@@H](CCCCN)C(=O)NCC(N)=O)NC(=O)CNC(=O)[C@H](CO)NC(=O)[C@H]([C@@H](C)CC)NC1=O)[C@@H](C)CC [compound 30] (H-GIFSKLAGKKIKNLCISGCKG-NH2; linker 15-19 via pXylylene) | 64 | 64 | 16 | >64 | >64 | > 200 | > 200
